In publication PMC6009932, “Small molecule purine and pseudopurine derivatives: synthesis, cytostatic evaluations and investigation of growth inhibitory effect in non-small cell lung cancer A549” (Journal of Enzyme Inhibition and Medicinal Chemistry, 2017):

Experiments:
A549 (lung carcinoma) = test: Proliferation assay (MTT, 72 h) on A549; assay type: cell-based; conditions: Homo sapiens, A549 lung adenocarcinoma
Experimental: (§1) Human carcinoma cell lines A549 (lung carcinoma), HeLa (cervical carcinoma), SW620 (colorectal adenocarcinoma, metastatic), and CFPAC-1 (pancreatic cancer, derived from metastatic: liver), normal human lung (WI38) and foreskin (HFF-1) fibroblasts were obtained from the American Type Culture Collection (ATCC). Cells were cultured in humidified atmosphere at 37 °C with 5% CO2. As growth medium, Dulbecco’s modified Eagle medium (DMEM) was used with the addition of foetal bovine serum (10%), L-glutamine (2 mM) and antibiotics: streptomycin (100 µg/ml) and penicillin (100 U/ml).
(§2) Cells were seeded onto 96-well microtiter plates at a seeding density of 3000 cells/well for carcinoma cell lines, and 5000 cells/well for normal human fibroblasts. The next day, cells were treated with test agents in five different concentrations (0.01–100 µM) and further incubated for 72 h. […] Following 72 h incubation, the MTT assay was performed and measured absorbances were transformed into percentage of cell growth as described previously. Results were obtained from three independent experiments. IC50 values were calculated using linear regression analysis and results were statistically analysed by ANOVA, Tukey post-hoc test (p < .05).

[1] = system: SW620 (colorectal adenocarcinoma, metastatic); test: Proliferation assay (MTT, 72 h) on SW620; assay type: cell-based; conditions: Homo sapiens, SW-620
Experimental: as §1, §2

[2] = system: HeLa (cervical carcinoma); test: Proliferation assay (MTT, 72 h) on HeLa; assay type: cell-based; conditions: Homo sapiens
Experimental: as §1, §2

[3] = system: WI38 normal human lung fibroblasts; test: Proliferation assay (MTT, 72 h) on normal lung fibroblasts WI38; assay type: cell-based; conditions: WI-38, read-out: IC50 WI38/HFF-1 (WI38)
Experimental: as §1, §2

[4] = system: CFPAC-1 (ductal pancreatic adenocarcinoma); test: Proliferation assay (MTT, 72 h) on CFPAC-1; assay type: cell-based; conditions: Homo sapiens
Experimental: as §1, §2

SMILES	IC50 (A549 (lung carcinoma)) [µM]	IC50 [1] [µM]	IC50 [2] [µM]	IC50 [3] [µM]	IC50 [4] [µM]	melting point [°C]
Fc1ccc(-n2cc(Cn3cnc4c(Cl)ncnc43)nn2)cc1 [Compound 4a, 6-Chloro-9-{[1–(4-fluorophenyl)-1 H-1,2,3-triazol-4-yl]methyl}-9 H-purine]	53.2	38.9	34.2	5.21	33.4	
FC(F)(F)c1ccc(-n2cc(Cn3cnc4c(Cl)ncnc43)nn2)cc1 [Compound 4c, 6-Chloro-9-{[1-(4-(trifluoromethyl)phenyl)-1H-1,2,3-triazol-4-yl]methyl}-9H-purine]	15.9	14.7	12.3	0.75	7.9	
Fc1ccccc1-n1cc(Cn2cnc3c(Cl)ncnc32)nn1 [Compound 4d, 6-Chloro-9-{[1-(2-fluorophenyl)-1H-1,2,3-triazol-4-yl]methyl}-9H-purine]	54.6	41.8	33.2	23.9	31.1	143 to 145
O=c1cc(Cn2cc(Cn3cnc4c(Cl)ncnc43)nn2)c2ccc(O)cc2o1 [Compound 4e, 4-{[4-((6-Chloro-9H-purin-9-yl)methyl)-1H-1,2,3-triazol-1-yl]methyl}-7-hydroxy-2H-chromen-2-one]	89	92.5	58	6.58	> 100	
FC(F)(F)c1ccc(-n2cc(Cn3cnc4c(Cl)nccc43)nn2)cc1 [Compound 5c, 4-Chloro-1-{[1-(4-(trifluoromethyl)phenyl)-1H-1,2,3-triazol-4-yl]methyl}-1H-imidazo[4,5-c]pyridine]	9.43	11.8	22.5	5.21	7.39	151 to 154
Fc1ccccc1-n1cc(Cn2cnc3c(Cl)nccc32)nn1 [Compound 5d, 4-Chloro-1-{[1–(2-fluorophenyl)-1H-1,2,3-triazol-4-yl]methyl}-1H-imidazo[4,5-c]pyridine]	73.9	90.2	> 100	23.9	> 100	124 to 127
O=c1cc(Cn2cc(Cn3cnc4c(Cl)nccc43)nn2)c2ccc(O)cc2o1 [Compound 5e]	> 100	> 100	> 100	60.5	> 100	
O=c1cc(Cn2cc(Cn3cnc4ncnc(Cl)c43)nn2)c2ccc(O)cc2o1 [Compound 6e, 4-{[4-((6-Chloro-7H-purin-7-yl)methyl)-1H-1,2,3-triazol-1-yl]methyl}-7-hydroxy-2H-chromen-2-one]	> 100	> 100	> 100	73.6	> 100	> 250
FC(F)(F)c1ccc(-n2cc(Cn3cnc4ccnc(Cl)c43)nn2)cc1 [Compound 7c, 4-Chloro-3-{[1-(4-(trifluoromethyl)phenyl)-1H-1,2,3-triazol-4-yl]methyl}-3H-imidazo[4,5-c]pyridine]	> 100	69	36.8	19.4	89.2	183 to 185
O=c1cc(Cn2cc(Cn3cnc4ccnc(Cl)c43)nn2)c2ccc(O)cc2o1 [Compound 7e, 4-{[4-((4-Chloro-3H-imidazo[4,5-c]pyridin-3-yl)methyl)-1H-1,2,3-triazol-1-yl]methyl}-7-hydroxy-2H-chromen-2-one]	> 100	> 100	8.77	7.62	> 100	
Fc1ccc(-n2cc(Cn3ccc4c(Cl)ncnc43)nn2)cc1 [Compound 8a, 4-Chloro-7-{[1-(4-fluorophenyl)-1H-1,2,3-triazol-4-yl]methyl}-7H-pyrrolo[2,3-d]pyrimidine]	85.4	8.5	39.4	32.2	48.4	
Clc1ccc(-n2cc(Cn3ccc4c(Cl)ncnc43)nn2)cc1 [Compound 8b, 4-Chloro-7-{[1-(4-chlorophenyl)-1H-1,2,3-triazol-4-yl]methyl}-7H-pyrrolo[2,3-d]pyrimidine]	64.5	44.6	65.5	21	47.7	
FC(F)(F)c1ccc(-n2cc(Cn3ccc4c(Cl)ncnc43)nn2)cc1 [Compound 8c, 4-Chloro-7-{[1-(4-(trifluoromethyl)phenyl)-1H-1,2,3-triazol-4-yl]methyl}-7H-pyrrolo[2,3-d]pyrimidine]	46.9	37.1	38.8	4.62	46.6	
Fc1ccccc1-n1cc(Cn2ccc3c(Cl)ncnc32)nn1 [Compound 8d, 4-Chloro-7-{[1-(2-fluorophenyl)-1H-1,2,3-triazol-4-yl]methyl}-7H-pyrrolo[2,3-d]pyrimidine]	69	65.5	83.3	22.5	35.2	112 to 114
O=c1cc(Cn2cc(Cn3ccc4c(Cl)ncnc43)nn2)c2ccc(O)cc2o1 [Compound 8e, 4-{[4-((4-Chloro-7H-pyrrolo[2,3-d]pyrimidin-7-yl)methyl)-1H-1,2,3-triazol-1-yl]methyl}-7-hydroxy-2H-chromen-2-one]	69.2	73.5	33.6	39.9	36.3	202 to 204
FC(F)(F)c1ccc(-n2cc(Cn3cc(Br)c4c(Cl)ncnc43)nn2)cc1 [Compound 9c, 5-Bromo-4-chloro-7-{[1-(4-(trifluoromethyl)phenyl)-1H-1,2,3-triazol-4-yl]methyl}-7H-pyrrolo[2,3-d]pyrimidine]	66.4	55.7	32.9	57.5	62.8	220 to 221
Fc1ccccc1-n1cc(Cn2cc(Br)c3c(Cl)ncnc32)nn1 [Compound 9d, 5-Bromo-4-chloro-7-{[1–(2-fluorophenyl)-1 H-1,2,3-triazol-4-yl]methyl}-7 H-pyrrolo[2,3-d]pyrimidine]	86.4	65.9	20	48.5	65.1	145 to 147
O=c1cc(Cn2cc(Cn3cc(Br)c4c(Cl)ncnc43)nn2)c2ccc(O)cc2o1 [Compound 9e, 4-{[4-((5-Bromo-4-chloro-7H-pyrrolo[2,3-d]pyrimidin-7-yl)methyl)-1H-1,2,3-triazol-1-yl]methyl}-7-hydroxy-2H-chromen-2-one]	45.5	45.1	24.5	10.8	47.3	> 250
Fc1ccc(-n2cc(Cn3ccc4cc(F)ccc43)nn2)cc1 [Compound 10a, 1-{[1-(4-Fluorophenyl)-1H-1,2,3-triazol-4-yl]methyl}-5-fluoro-1H-indole]	> 100	> 100	> 100	> 100	> 100	
Fc1ccc2c(ccn2Cc2cn(-c3ccc(Cl)cc3)nn2)c1 [Compound 10b]	40.2	45.8	31	58.1	> 100	117 to 120
Fc1ccc2c(ccn2Cc2cn(-c3ccccc3F)nn2)c1 [Compound 10d, 5-Fluoro-1-{[1-(2-fluorophenyl)-1H-1,2,3-triazol-4-yl]methyl}-1H-indole]	> 100	> 100	82.9	> 100	> 100	
Fc1ccc(-n2cc(Cn3cnc4ccccc43)nn2)cc1 [Compound 12a, 1-{[1-(4-fluorophenyl)-1H-1,2,3-triazol-4-yl]met-hyl}-1H-benzo[d]imidazole]	76.3	99.9	71.7	91.9	86.5	
FC(F)(F)c1ccc(-n2cc(Cn3cnc4ccccc43)nn2)cc1 [Compound 12c, 1-{[1–(4-(trifluoromethyl)phenyl)-1H-1,2,3-triazol-4-yl]methyl}-1H-benzo[d]imidazole]	14.2	> 100	30.6	> 100	56.4	
Fc1ccccc1-n1cc(Cn2cnc3ccccc32)nn1 [Compound 12d, 1-{[1–(2-fluorophenyl)-1H-1,2,3-triazol-4-yl]methyl}-1H-benzo[d]imidazole]	36.2	> 100	21.9	30.6	34.7	
O=c1cc(Cn2cc(Cn3cnc4ccccc43)nn2)c2ccc(O)cc2o1 [Compound 12e, 4-{4-[((1H-benzo[d]imidazol-1-yl)methyl)-1H-1,2,3-triazol-1-yl]methyl}-7-hydroxy-4a,8a-dihydro-2H-chromen-2-on]	> 100	> 100	> 100	> 100	> 100	
